Drawing on ChEMBL document CHEMBL1129000, “Inhibitors of acyl-CoA: cholesterol O-acyl transferase (ACAT) as hypocholesterolemic agents. The synthesis and biological activity of a series of malonester amides” (Bioorg Med Chem Lett, 1996), this text covers Change and IC50 for 16 compounds.

Structures are written as SMILES. Active and inactive are the calls of the source. The rule behind the calls is not given here.

For orientation: IC50 means the concentration that inhibits the measured activity by half. Low readings indicate greater potency in that assay, high ones weaker potency in that assay.

The test system of the first assay is Rattus norvegicus. The assay is described as follows: Tested for the percentage change in non HDL-C in pre-established hypercholesterolemia (CPCC) model at a dose of 1 mg/kg. Format: functional.
As to `CCCCCCCCCCC(C)OC(=O)CC(=O)Nc1c(C(C)C)cccc1C(C)C` (stereo not given), the Change was -15%.

For another assay, the system named is Rattus norvegicus. In words: Tested for the percentage change in non HDL-C in pre-established hypercholesterolemia (CPCC) model at a dose of 1 mg/kg (p<0.05). Format: functional.
As to `CCCCCCCCCCCCC(C)OC(=O)CC(=O)Nc1c(C(C)C)cccc1C(C)C` (stereo not given), the Change is on record as -54%.

The subject of the next assay is Rattus norvegicus. The assay is described as follows: Tested for the percentage change in non HDL-C in pre-established hypercholesterolemia (CPCC) model fat at a dose of 1 mg/kg. It counts as functional.
In the case of `CCCCCCCCCCCCC(C)(C)OC(=O)CC(=O)Nc1c(C(C)C)cccc1C(C)C`, the Change is recorded as -19%.

On to `CCCCCCCCCCCCCCC(C)OC(=O)CC(=O)Nc1c(C(C)C)cccc1C(C)C` (stereo not given), for which the Change stood at 7%.

The next assay deals with Rattus norvegicus. The assay is described as follows: Tested for the percentage change in HDL in pre-established hypercholesterolemia (CPCC) model at a dose of 0.1 mg/kg. Format: functional.
On to `CCCCCCCCCCCCC(C)(C)OC(=O)CC(=O)Nc1c(C(C)C)cccc1C(C)C`, for which the Change is reported as -12%.

`CCCCCCCCCCCCCCC(C)OC(=O)CC(=O)Nc1c(C(C)C)cccc1C(C)C` (stereo not given): the Change is reported as -12%.

The next assay has as its system Rattus norvegicus. In words: Tested for the percentage change in non HDL-C in pre-established hypercholesterolemia (CPCC) model at dose of 3 mg/kg. It counts as functional.
With `CCCCCCCCCCCCC(C)(C)OC(=O)CC(=O)Nc1c(C(C)C)cccc1C(C)C`, the Change is -19%.

For `CCCCCCCCCCCCCCC(C)OC(=O)CC(=O)Nc1c(C(C)C)cccc1C(C)C` (stereo not given), the Change is reported as -2%.

The subject of a further assay is Rattus norvegicus. The assay is described as follows: Tested for the percentage change in non HDL-C in pre-established hypercholesterolemia (CPCC) model at a dose of 30 mg/kg. Format: functional.
As for `CCCCCCCCCCCCCCOC(=O)CC(=O)Nc1c(C(C)C)cccc1C(C)C`, the Change is listed as -11%.

For `CCCCCCCCCCCCOC(=O)CC(=O)Nc1c(C(C)C)cccc1C(C)C`, the Change was -8%.

On to `CC(C)c1cccc(C(C)C)c1NC(=O)CC(=O)Oc1c(C(C)C)cccc1C(C)C`, for which the Change came out at 9%.

In a further assay the test system is Rattus norvegicus. The assay is described as follows: Tested for the percentage change in HDL in pre-established hypercholesterolemia (CPCC) model at a dose of 1 mg/kg. Format: functional.
For `CCCCCCCCCCCCC(C)(C)OC(=O)CC(=O)Nc1c(C(C)C)cccc1C(C)C`, the Change is given as 6%.

With `CCCCCCCCCCCCCCC(C)OC(=O)CC(=O)Nc1c(C(C)C)cccc1C(C)C` (stereo not given), the Change is recorded as 13%.

In another assay the target is O-acyltransferase (Oryctolagus cuniculus, UniProt G1SFD9). In words: In vitro inhibitory activity against Acyl coenzyme A:cholesterol acyltransferase in intestinal microsomes isolated from cholesterol fed rabbits (IAI). Set-up: species or system Intestine.
Sequence of O-acyltransferase (G1SFD9 1-524): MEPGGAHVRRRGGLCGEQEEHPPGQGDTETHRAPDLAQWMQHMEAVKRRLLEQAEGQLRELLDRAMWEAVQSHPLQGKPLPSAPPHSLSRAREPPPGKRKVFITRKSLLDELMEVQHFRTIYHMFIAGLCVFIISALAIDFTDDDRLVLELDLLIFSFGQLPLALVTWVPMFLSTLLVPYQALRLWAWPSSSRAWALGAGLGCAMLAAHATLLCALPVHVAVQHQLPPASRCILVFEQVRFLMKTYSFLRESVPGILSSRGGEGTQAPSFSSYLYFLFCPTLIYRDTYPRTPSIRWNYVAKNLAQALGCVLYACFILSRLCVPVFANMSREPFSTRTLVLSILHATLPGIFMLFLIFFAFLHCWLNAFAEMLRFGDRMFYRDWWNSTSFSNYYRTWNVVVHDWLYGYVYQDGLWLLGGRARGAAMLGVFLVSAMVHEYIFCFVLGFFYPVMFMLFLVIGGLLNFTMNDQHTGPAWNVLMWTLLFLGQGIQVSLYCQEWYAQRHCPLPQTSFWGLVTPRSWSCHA
The compound `CC(C)c1cccc(C(C)C)c1OC(=O)CC(=O)Nc1c(N(C)C)cccc1N(C)C` gave an IC50 of 71 nM.

Compound `CCCCCCCCCCC(C)OC(=O)CC(=O)Nc1c(C(C)C)cccc1C(C)C` (stereo not given) had a concentration for half-maximal inhibition (IC50) of 6 nM.

Compound `CC(C)c1cccc(C(C)C)c1OC(=O)CC(=O)Nc1ccc(F)cc1F` registered an IC50 of 6400 nM.

With `CCCCCCCCCCCCCCCCOC(=O)CC(=O)Nc1c(C(C)C)cccc1C(C)C`, it took 35 nM to reach half-maximal inhibition (IC50).

Turning to `CCCCC(C)(C)OC(=O)CC(=O)Nc1c(C(C)C)cccc1C(C)C`, half-maximal inhibition (IC50) was put at 15 nM.

The compound `COc1cccc(OC)c1OC(=O)CC(=O)Nc1c(C(C)C)cccc1C(C)C` returned an IC50 of 1700 nM. This IC50 is about 110-fold higher than that of the compound before.

Compound `CCCCCCCCCCCCC(C)(C)OC(=O)CC(=O)Nc1c(C(C)C)cccc1C(C)C` came in with an IC50 of 12 nM.

Compound `CC(C)c1cccc(C(C)C)c1OC(=O)CC(=O)Nc1c(F)cccc1F` gave an IC50 of 6200 nM.

For `CC(C)c1cccc(C(C)C)c1NC(=O)CC(=O)OC(c1ccccc1)c1ccccc1`, the IC50 stood at 38 nM.

Consider `CCCCCCCCOC(=O)CC(=O)Nc1c(C(C)C)cccc1C(C)C`, for which the IC50 was determined as 260 nM.

Regarding `CC(C)c1cccc(C(C)C)c1NC(=O)CC(=O)OC(C)(C)C`, the IC50 came to 130 nM.

For `CCCCCCCCCCCCCCOC(=O)CC(=O)Nc1c(C(C)C)cccc1C(C)C`, the IC50 came out at 15 nM.

`CCCCCCCCCCCCOC(=O)CC(=O)Nc1c(C(C)C)cccc1C(C)C` registered an IC50 of 11 nM. The IC50 values of the last two compounds are within 1.5-fold of each other.

Compound `CCCCCCCCCCCCCCC(C)OC(=O)CC(=O)Nc1c(C(C)C)cccc1C(C)C` (stereo not given) came in with an IC50 of 11 nM.

For `CC(C)c1cccc(C(C)C)c1NC(=O)CC(=O)Oc1c(C(C)C)cccc1C(C)C`, the IC50 came out at 42 nM. This IC50 is about 3.8-fold higher than that of the compound before.

A further assay concerns Rattus norvegicus. The assay is described as follows: Tested for the percentage change in non HDL in pre-established hypercholesterolemia (CPCC) model fat at a dose of 30 mg/kg. Format: functional.
On to `CCCCCCCCCCCCCCOC(=O)CC(=O)Nc1c(C(C)C)cccc1C(C)C`, for which the Change worked out at 6%.

The subject of another assay is Rattus norvegicus. In words: Tested for the percentage change in non HDL-C in pre-established hypercholesterolemia (CPCC) model at dose of 10 mg/kg (p<0.05). It counts as functional.
`CCCCCCCCCCCCC(C)OC(=O)CC(=O)Nc1c(C(C)C)cccc1C(C)C` (stereo not given): the Change is -83%.

In a further assay the test system is Rattus norvegicus. In words: Tested for the percentage change in HDL in pre-established hypercholesterolemia (CPCC) model at a dose of 3 mg/kg. Format: functional.
Regarding `CCCCCCCCCCCCC(C)(C)OC(=O)CC(=O)Nc1c(C(C)C)cccc1C(C)C`, the Change is -13%.

Regarding `CCCCCCCCCCCCCCC(C)OC(=O)CC(=O)Nc1c(C(C)C)cccc1C(C)C` (stereo not given), the Change was -24%.

The next assay relates to Rattus norvegicus. In words: Tested for the percentage change in non HDL-C in pre-established hypercholesterolemia (CPCC) model fat at a dose of 3 mg/kg. It counts as functional.
`CCCCCCCCCCC(C)OC(=O)CC(=O)Nc1c(C(C)C)cccc1C(C)C` (stereo not given): the Change was -40%.

The next assay deals with Rattus norvegicus. In words: Tested for the percentage change in HDL in pre-established hypercholesterolemia (CPCC) model at a dose of 10 mg/kg. Format: functional.
On to `CCCCCCCCCCC(C)OC(=O)CC(=O)Nc1c(C(C)C)cccc1C(C)C` (stereo not given), for which the Change is recorded as 29%.

Another assay deals with Rattus norvegicus. The assay is described as follows: Tested for the percentage change in HDL in pre-established hypercholesterolemia (CPCC) model at a dose of 3 mg/kg (p<0.05). It counts as functional.
As for `CCCCCCCCCCCCC(C)OC(=O)CC(=O)Nc1c(C(C)C)cccc1C(C)C` (stereo not given), the Change turned out to be 157%.

The test system of the next assay is Rattus norvegicus. The assay is described as follows: Tested for the percentage change in non HDL-C in pre-established hypercholesterolemia (CPCC) model fat at a dose of 3 mg/kg (p<0.05). Format: functional.
For `CCCCCCCCCCCCC(C)OC(=O)CC(=O)Nc1c(C(C)C)cccc1C(C)C` (stereo not given), the Change is -73%.

The next assay deals with Rattus norvegicus. In words: In vivo percent change in the total cholesterol after consumption of a single high fat, high cholesterol meal by rats. Format: functional.
On to `CC(C)c1cccc(C(C)C)c1OC(=O)CC(=O)Nc1c(N(C)C)cccc1N(C)C`, for which the Change is on record as -29%.

Turning to `CCCCCCCCCCC(C)OC(=O)CC(=O)Nc1c(C(C)C)cccc1C(C)C` (stereo not given), the Change is given as -70%.

On to `CCCCCCCCCCCCC(C)OC(=O)CC(=O)Nc1c(C(C)C)cccc1C(C)C` (stereo not given), for which the Change is on record as -54%.

In the case of `CCCCCCCCCCCCCCCCOC(=O)CC(=O)Nc1c(C(C)C)cccc1C(C)C`, the Change is -56%.

As for `CCCCC(C)(C)OC(=O)CC(=O)Nc1c(C(C)C)cccc1C(C)C`, the Change is given as -52%.

For the compound `COc1cccc(OC)c1OC(=O)CC(=O)Nc1c(C(C)C)cccc1C(C)C`, the Change came to 5%.

As to `CCCCCCCCCCCCC(C)(C)OC(=O)CC(=O)Nc1c(C(C)C)cccc1C(C)C`, the Change is -72%.

`CC(C)c1cccc(C(C)C)c1OC(=O)CC(=O)Nc1c(F)cccc1F`: the Change amounted to 4%.

In the case of `CC(C)c1cccc(C(C)C)c1NC(=O)CC(=O)OC(c1ccccc1)c1ccccc1`, the Change is recorded as -41%.

In the case of `CCCCCCCCOC(=O)CC(=O)Nc1c(C(C)C)cccc1C(C)C`, the Change is -43%.

Turning to `CC(C)c1cccc(C(C)C)c1NC(=O)CC(=O)OC(C)(C)C`, the Change was -24%.

Regarding `CCCCCCCCCCCCCCOC(=O)CC(=O)Nc1c(C(C)C)cccc1C(C)C`, the Change is given as -61%.

Turning to `CCCCCCCCCCCCOC(=O)CC(=O)Nc1c(C(C)C)cccc1C(C)C`, the Change is recorded as -52%.

As for `CCCCCCCCCCCCCCC(C)OC(=O)CC(=O)Nc1c(C(C)C)cccc1C(C)C` (stereo not given), the Change was -60%.

`CC(C)c1cccc(C(C)C)c1NC(=O)CC(=O)Oc1c(C(C)C)cccc1C(C)C`: the Change is on record as <-50%.

Another assay has as its system Rattus norvegicus. In words: Tested for the percentage change in non HDL-C in pre-established hypercholesterolemia (CPCC) model at dose of 10 mg/kg. Format: functional.
For the compound `CCCCCCCCCCC(C)OC(=O)CC(=O)Nc1c(C(C)C)cccc1C(C)C` (stereo not given), the Change is on record as -51%.

Another assay concerns Rattus norvegicus. In words: Tested for the percentage change in HDL in pre-established hypercholesterolemia (CPCC) model at a dose of 10 mg/kg (p<0.05). Format: functional.
As to `CCCCCCCCCCCCC(C)OC(=O)CC(=O)Nc1c(C(C)C)cccc1C(C)C` (stereo not given), the Change turned out to be 114%.

A further assay concerns Rattus norvegicus. In words: Tested for the percentage change in HDL in pre-established hypercholesterolemia (CPCC) model at a dose of 1 mg/kg; No change. It counts as functional, organism-based. Details: dose 1 mg/kg.
`CCCCCCCCCCC(C)OC(=O)CC(=O)Nc1c(C(C)C)cccc1C(C)C` (stereo not given): the Change entry was “inactive”.

The next assay relates to Rattus norvegicus. In words: Tested for the percentage change in non HDL in pre-established hypercholesterolemia (CPCC) model fat at a dose of 30 mg/kg; Non significant. It counts as functional, organism-based. Details: dose 30 mg/kg.
With `CC(C)c1cccc(C(C)C)c1NC(=O)CC(=O)Oc1c(C(C)C)cccc1C(C)C`, the Change result is “Not significant”.

Another assay has as its system Rattus norvegicus. The assay is described as follows: Tested for the percentage change in non HDL-C in pre-established hypercholesterolemia (CPCC) model at a dose of 0.1 mg/kg. It counts as functional.
In the case of `CCCCCCCCCCCCC(C)(C)OC(=O)CC(=O)Nc1c(C(C)C)cccc1C(C)C`, the Change is reported as -11%.

Turning to `CCCCCCCCCCCCCCC(C)OC(=O)CC(=O)Nc1c(C(C)C)cccc1C(C)C` (stereo not given), the Change is -8%.

The subject of the next assay is Rattus norvegicus. In words: Tested for the percentage change in HDL in pre-established hypercholesterolemia (CPCC) model at a dose of 3 mg/kg. It counts as functional.
In the case of `CCCCCCCCCCC(C)OC(=O)CC(=O)Nc1c(C(C)C)cccc1C(C)C` (stereo not given), the Change is 36%.

A further assay concerns Rattus norvegicus. The assay is described as follows: Tested for the percentage change in HDL in pre-established hypercholesterolemia (CPCC) model fat at a dose of 30 mg/kg. Format: functional.
For the compound `CCCCCCCCCCCCOC(=O)CC(=O)Nc1c(C(C)C)cccc1C(C)C`, the Change is listed as -21%.

Another assay relates to Rattus norvegicus. The assay is described as follows: Tested for the percentage change in HDL in pre-established hypercholesterolemia (CPCC) model at a dose of 1 mg/kg (p<0.05). Format: functional.
In the case of `CCCCCCCCCCCCC(C)OC(=O)CC(=O)Nc1c(C(C)C)cccc1C(C)C` (stereo not given), the Change is reported as 64%.
